Measured values as given in patent publication US7109193B2, “Tricyclic diazepines tocolytic oxytocin receptor antagonists” (Wyeth, priority 2001, dated 2006).

Key:
[1] = target: T1, human vasopressin V2 receptor subtype (Homo sapiens, UniProt P30518); test: Vasopressin binding in Chinese Hamster Ovary cell membranes expressing human vasopressin V2 subtype receptors; details: 100 nM, CHO cell membranes, [3H]arginine vasopressin, values without parentheses
T1 construct: host or cells: CHO cells (pZeoSV vector)
T1 sequence (P30518 whole entry): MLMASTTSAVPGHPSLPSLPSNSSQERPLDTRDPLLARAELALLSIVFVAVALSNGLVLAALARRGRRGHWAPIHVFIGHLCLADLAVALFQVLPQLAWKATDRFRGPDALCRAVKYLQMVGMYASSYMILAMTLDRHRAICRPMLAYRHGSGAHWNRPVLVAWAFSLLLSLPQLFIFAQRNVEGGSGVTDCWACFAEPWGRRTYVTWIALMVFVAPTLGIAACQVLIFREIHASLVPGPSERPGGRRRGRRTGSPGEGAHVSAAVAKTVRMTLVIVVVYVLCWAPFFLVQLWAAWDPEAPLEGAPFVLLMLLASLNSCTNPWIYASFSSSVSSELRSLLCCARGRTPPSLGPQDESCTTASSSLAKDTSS
Summary of the method: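 Radioligand displacement on membranes from CHO cells stably expressing human V2 receptor, 25 to 50 μg protein/well, in 50 mM Tris-HCl pH 7.4 with MgCl2, BSA and protease inhibitors. [^3H]arginine vasopressin (8 nM working solution) incubated 60 min at room temperature; bound label measured by filtration and scintillation counting.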

Cc1cc(C(=O)N2Cc3ccc(C(=O)N4CCN(CCCN(C)C)CC4)n3Cc3ccccc32)ccc1-c1ccccc1C(F)(F)F [Example 4, [4-(3-Dimethylaminopropyl)-piperazin-1-yl]-[10-(2-methyl-2′-trifluoromethyl-[1,1′-biphenyl]-4-yl)carbonyl]-[10,11-dihydro-5H-pyrrolo[2,1-c][1,4]benzodiazepin-3-yl]-methanone]
inhibition at 0.1 µM [1]: 24% | melting point: 85 to 95 °C
